Measured values from PMC11356900, “Synthesis, Structural Properties and Biological Activities of Novel Hydrazones of 2-, 3-, 4-Iodobenzoic Acid” (Molecules, 2024).

Tests used:
Experiment in all cases: MTT cytotoxicity assay
Type in all cases: cell-based
A549 cell line = system: A549 cell line
Description: (§1) Among all the newly synthesized compounds, four compounds designated as: 14, 20, 21 and 27 were selected for further testing of their cytotoxic properties at the doses of 10, 25, 50, 75 and 100 µM. The cytotoxic properties of the above compounds were tested on the cancer cell lines, i.e., A549 (ECACC 86012804) (non-small-cell lung cancer), T47D (ECACC 85102201) (breast cancer), HeLa (ATCC® CCL-2™) (cervical cancer) and normal line L929 (NCTC clone 929, ATCC® CCL-1™) (mouse fibroblasts) using the MTT test for 24- and 48 h cultures.
(§2) A549 (ECACC 86012804) (non-small-cell lung cancer) and T47D (ECACC 85102201) (breast cancer) were obtained from ECACC and propagated in Dulbecco’s Minimal Essential Medium, supplemented with 2 mM of glutamine, antibiotics ([…] streptomycin, 1% of 100 U/L penicillin) and 10% Fetal Bovine Serum. HeLa (ATCC® CCL-2™) (cervical cancer) and L929 (NCTC clone 929, ATCC® CCL-1™) (mouse fibroblasts) cell lines were obtained from ATCC and propagated in the Eagle Minimal Essential Medium supplemented with antibiotics ([…] streptomycin, 1% of 100 U/L penicillin) and with 10% and 5% FBS, respectively. The cell line was routinely grown in 75 cm^2 tissue culture flasks and kept in an incubator (humidified atmosphere of 5% CO2 at 37 °C). All examined cell lines were tested against mycoplasma contamination with microbiological assays.
(§3) The cell viability of tested compounds (14, 20, 21 and 27) was assessed by the MTT assay. In brief, the exponentially growing cells were plated in 100 μL/well in 96-well plates. After 24 h culturing, the cells were treated with different concentrations of compounds (range 10–100 μM). After 24 and 48 h of incubation, 10 μL of 5 mg/mL MTT was added to each well and the plates were incubated at 37 °C for additional 4 h. The medium was subsequently removed, the purple-colored precipitates of formazan were dissolved in 100 μL of DMSO. The color absorbance was recorded at 570 nm using a BioTek model EPOCH ELISA plate reader. All experiments were performed in triplicate. The absorbance values were in the range of linearity of the Lambert–Beer law.

HeLa cell line = system: HeLa cell line
Description: as §1, §2, §3

T47D cell line = system: T47D cell line
Description: as §1, §2, §3

SMILES: O=C(N/N=C/c1cc(Cl)cc(I)c1O)c1cccc(I)c1 [Compound 20, N-[(5-chloro-2-hydroxy-3-iodophenyl)methylidene]-3-iodobenzohydrazide]
- cell proliferation (A549 cell line; A549, 24h, 10 µM, Repeat No 1): 87%
- cell proliferation (A549 cell line; A549, 24h, 10 µM, Repeat No 2): 92%
- cell proliferation (A549 cell line; A549, 24h, 25 µM, Repeat No 1): 83%
- cell proliferation (A549 cell line; A549, 24h, 25 µM, Repeat No 2): 91%
- cell proliferation (A549 cell line; A549, 24h, 50 µM, Repeat No 1): 83%
- cell proliferation (A549 cell line; A549, 24h, 50 µM, Repeat No 2): 87%
- cell proliferation (A549 cell line; A549, 24h, 75 µM, Repeat No 1): 91%
- cell proliferation (A549 cell line; A549, 24h, 75 µM, Repeat No 2): 95%
- cell proliferation (A549 cell line; A549, 24h, 100 µM, Repeat No 1): 90%
- cell proliferation (A549 cell line; A549, 24h, 100 µM, Repeat No 2): 93%
- cell proliferation (A549 cell line; A549, 48h, 10 µM, Repeat No 1): 88%
- cell proliferation (A549 cell line; A549, 48h, 10 µM, Repeat No 2): 84%
- cell proliferation (A549 cell line; A549, 48h, 25 µM, Repeat No 1): 79%
- cell proliferation (A549 cell line; A549, 48h, 25 µM, Repeat No 2): 83%
- cell proliferation (A549 cell line; A549, 48h, 50 µM, Repeat No 1): 88%
- cell proliferation (A549 cell line; A549, 48h, 50 µM, Repeat No 2): 92%
- cell proliferation (A549 cell line; A549, 48h, 75 µM, Repeat No 1): 99%
- cell proliferation (A549 cell line; A549, 48h, 75 µM, Repeat No 2): 95%
- cell proliferation (A549 cell line; A549, 48h, 100 µM, Repeat No 1): 91%
- cell proliferation (A549 cell line; A549, 48h, 100 µM, Repeat No 2): 93%
- cell proliferation (HeLa cell line; 24h, 10 µM, Repeat No 1): 87%
- cell proliferation (HeLa cell line; 24h, 10 µM, Repeat No 2): 92%
- cell proliferation (HeLa cell line; 24h, 25 µM, Repeat No 1): 81%
- cell proliferation (HeLa cell line; 24h, 25 µM, Repeat No 2): 88%
- cell proliferation (HeLa cell line; 24h, 50 µM, Repeat No 1): 78%
- cell proliferation (HeLa cell line; 24h, 50 µM, Repeat No 2): 83%
- cell proliferation (HeLa cell line; 24h, 75 µM, Repeat No 1): 85%
- cell proliferation (HeLa cell line; 24h, 75 µM, Repeat No 2): 91%
- cell proliferation (HeLa cell line; 24h, 100 µM, Repeat No 1): 81%
- cell proliferation (HeLa cell line; 24h, 100 µM, Repeat No 2): 79%
- cell proliferation (HeLa cell line; 48h, 10 µM, Repeat No 1): 88%
- cell proliferation (HeLa cell line; 48h, 10 µM, Repeat No 2): 91%
- cell proliferation (HeLa cell line; 48h, 25 µM, Repeat No 1): 73%
- cell proliferation (HeLa cell line; 48h, 25 µM, Repeat No 2): 75%
- cell proliferation (HeLa cell line; 48h, 50 µM, Repeat No 1): 87%
- cell proliferation (HeLa cell line; 48h, 50 µM, Repeat No 2): 91%
- cell proliferation (HeLa cell line; 48h, 75 µM, Repeat No 1): 99%
- cell proliferation (HeLa cell line; 48h, 75 µM, Repeat No 2): 96%
- cell proliferation (HeLa cell line; 48h, 100 µM, Repeat No 1): 93%
- cell proliferation (HeLa cell line; 48h, 100 µM, Repeat No 2): 94%
- cell proliferation (T47D cell line; 24h, 10 µM, Repeat No 1): 78%
- cell proliferation (T47D cell line; 24h, 10 µM, Repeat No 2): 81%
- cell proliferation (T47D cell line; 24h, 25 µM, Repeat No 1): 76%
- cell proliferation (T47D cell line; 24h, 25 µM, Repeat No 2): 72%
- cell proliferation (T47D cell line; 24h, 50 µM, Repeat No 1): 77%
- cell proliferation (T47D cell line; 24h, 50 µM, Repeat No 2): 69%
- cell proliferation (T47D cell line; 24h, 75 µM, Repeat No 1): 77%
- cell proliferation (T47D cell line; 24h, 75 µM, Repeat No 2): 73%
- cell proliferation (T47D cell line; 24h, 100 µM, Repeat No 1): 87%
- cell proliferation (T47D cell line; 24h, 100 µM, Repeat No 2): 82%
- cell proliferation (T47D cell line; 48h, 10 µM, Repeat No 1): 80%
- cell proliferation (T47D cell line; 48h, 10 µM, Repeat No 2): 78%
- cell proliferation (T47D cell line; 48h, 25 µM, Repeat No 1): 79%
- cell proliferation (T47D cell line; 48h, 25 µM, Repeat No 2): 75%
- cell proliferation (T47D cell line; 48h, 50 µM, Repeat No 1): 76%
- cell proliferation (T47D cell line; 48h, 50 µM, Repeat No 2): 73%
- cell proliferation (T47D cell line; 48h, 75 µM, Repeat No 1): 83%
- cell proliferation (T47D cell line; 48h, 75 µM, Repeat No 2): 86%
- cell proliferation (T47D cell line; 48h, 100 µM, Repeat No 1): 81%
- cell proliferation (T47D cell line; 48h, 100 µM, Repeat No 2): 79%

SMILES: O=C(N/N=C/c1cc(Br)cc(Br)c1O)c1cccc(I)c1 [Compound 21, N-[(3,5-dibromo-2-hydroxyphenyl)methylidene]-3-iodobenzohydrazide]
- cell proliferation (A549 cell line; A549, 24h, 10 µM, Repeat No 1): 88%
- cell proliferation (A549 cell line; A549, 24h, 10 µM, Repeat No 2): 99%
- cell proliferation (A549 cell line; A549, 24h, 25 µM, Repeat No 1): 88%
- cell proliferation (A549 cell line; A549, 24h, 25 µM, Repeat No 2): 88%
- cell proliferation (A549 cell line; A549, 24h, 50 µM, Repeat No 1): 92%
- cell proliferation (A549 cell line; A549, 24h, 50 µM, Repeat No 2): 101%
- cell proliferation (A549 cell line; A549, 24h, 75 µM, Repeat No 1): 103%
- cell proliferation (A549 cell line; A549, 24h, 75 µM, Repeat No 2): 99%
- cell proliferation (A549 cell line; A549, 24h, 100 µM, Repeat No 1): 87%
- cell proliferation (A549 cell line; A549, 24h, 100 µM, Repeat No 2): 94%
- cell proliferation (A549 cell line; A549, 48h, 10 µM, Repeat No 1): 92%
- cell proliferation (A549 cell line; A549, 48h, 10 µM, Repeat No 2): 99%
- cell proliferation (A549 cell line; A549, 48h, 25 µM, Repeat No 1): 94%
- cell proliferation (A549 cell line; A549, 48h, 25 µM, Repeat No 2): 91%
- cell proliferation (A549 cell line; A549, 48h, 50 µM, Repeat No 1): 97%
- cell proliferation (A549 cell line; A549, 48h, 50 µM, Repeat No 2): 91%
- cell proliferation (A549 cell line; A549, 48h, 75 µM, Repeat No 1): 83%
- cell proliferation (A549 cell line; A549, 48h, 75 µM, Repeat No 2): 87%
- cell proliferation (A549 cell line; A549, 48h, 100 µM, Repeat No 1): 91%
- cell proliferation (A549 cell line; A549, 48h, 100 µM, Repeat No 2): 87%
- cell proliferation (HeLa cell line; 24h, 10 µM, Repeat No 1): 89%
- cell proliferation (HeLa cell line; 24h, 10 µM, Repeat No 2): 88%
- cell proliferation (HeLa cell line; 24h, 25 µM, Repeat No 1): 89%
- cell proliferation (HeLa cell line; 24h, 25 µM, Repeat No 2): 92%
- cell proliferation (HeLa cell line; 24h, 50 µM, Repeat No 1): 86%
- cell proliferation (HeLa cell line; 24h, 50 µM, Repeat No 2): 104%
- cell proliferation (HeLa cell line; 24h, 75 µM, Repeat No 1): 104%
- cell proliferation (HeLa cell line; 24h, 75 µM, Repeat No 2): 87%
- cell proliferation (HeLa cell line; 24h, 100 µM, Repeat No 1): 87%
- cell proliferation (HeLa cell line; 24h, 100 µM, Repeat No 2): 91%
- cell proliferation (HeLa cell line; 48h, 10 µM, Repeat No 1): 86%
- cell proliferation (HeLa cell line; 48h, 10 µM, Repeat No 2): 93%
- cell proliferation (HeLa cell line; 48h, 25 µM, Repeat No 1): 101%
- cell proliferation (HeLa cell line; 48h, 25 µM, Repeat No 2): 97%
- cell proliferation (HeLa cell line; 48h, 50 µM, Repeat No 1): 81%
- cell proliferation (HeLa cell line; 48h, 50 µM, Repeat No 2): 87%
- cell proliferation (HeLa cell line; 48h, 75 µM, Repeat No 1): 91%
- cell proliferation (HeLa cell line; 48h, 75 µM, Repeat No 2): 89%
- cell proliferation (HeLa cell line; 48h, 100 µM, Repeat No 1): 88%
- cell proliferation (HeLa cell line; 48h, 100 µM, Repeat No 2): 92%
- cell proliferation (T47D cell line; 24h, 10 µM, Repeat No 1): 82%
- cell proliferation (T47D cell line; 24h, 10 µM, Repeat No 2): 84%
- cell proliferation (T47D cell line; 24h, 25 µM, Repeat No 1): 83%
- cell proliferation (T47D cell line; 24h, 25 µM, Repeat No 2): 88%
- cell proliferation (T47D cell line; 24h, 50 µM, Repeat No 1): 78%
- cell proliferation (T47D cell line; 24h, 50 µM, Repeat No 2): 76%
- cell proliferation (T47D cell line; 24h, 75 µM, Repeat No 1): 71%
- cell proliferation (T47D cell line; 24h, 75 µM, Repeat No 2): 79%
- cell proliferation (T47D cell line; 24h, 100 µM, Repeat No 1): 73%
- cell proliferation (T47D cell line; 24h, 100 µM, Repeat No 2): 78%
- cell proliferation (T47D cell line; 48h, 10 µM, Repeat No 1): 79%
- cell proliferation (T47D cell line; 48h, 10 µM, Repeat No 2): 71%
- cell proliferation (T47D cell line; 48h, 25 µM, Repeat No 1): 79%
- cell proliferation (T47D cell line; 48h, 25 µM, Repeat No 2): 81%
- cell proliferation (T47D cell line; 48h, 50 µM, Repeat No 1): 81%
- cell proliferation (T47D cell line; 48h, 50 µM, Repeat No 2): 79%
- cell proliferation (T47D cell line; 48h, 75 µM, Repeat No 1): 69%
- cell proliferation (T47D cell line; 48h, 75 µM, Repeat No 2): 74%
- cell proliferation (T47D cell line; 48h, 100 µM, Repeat No 1): 78%
- cell proliferation (T47D cell line; 48h, 100 µM, Repeat No 2): 71%
